Test results from patent publication US9045505B2, “Nitric oxide donors” (University of Otago, priority 2006, dated 2015).

What was measured:
complex I = assay: S-nitrosation of bovine heart mitochondrial membranes and complex I; type: biochemical
C2C12 cells = assay: S-nitrosation of cellular protein thiols in C2C12 cells; type: cell-based, mouse; settings: 5 μM
Protocol: FIG. 11 is a series of graphs showing S-nitrosation of mitochondrial thiols by MitoSNAP. (a) Time course of S-nitrosation of mitochondrial proteins by MitoSNAP. Liver mitochondria (1 mg protein) were incubated in 1 ml KCl buffer supplemented with rotenone and succinate in the presence of 5 μM MitoSNAP. At various times mitochondria were treated with 10 mM N-ethylmaleimide (NEM), isolated by centrifugation and the S-nitrosothiol content assessed. Data are of a typical experiment showing means±range of duplicate samples for each time point, each measured in duplicate. The experiment was repeated twice. (b) S-nitrosation of mitochondrial proteins by different concentrations of MitoSNAP and SNAP. Aliquots of liver mitochondria were incubated with the indicated concentrations of MitoSNAP or SNAP for […] in the presence or absence of 500 nM FCCP and then assessed for S-nitrosothiol content as in (a). For the +NEM sample, 10 mM NEM was added to the mitochondria and 1 min later 5 μM MitoSNAP was added and incubated for a further 2.5 min. Data are of a typical experiment showing means±range of duplicate samples for each time point, each measured in duplicate. The experiment was repeated twice. (c) S-nitrosation of cellular protein thiols by MitoSNAP. […] After further incubation for 5 min at 37° C. in the dark, the medium was removed and the content of S-nitrosated proteins was measured. […] After 5 min at 37° C. in the dark, the medium was removed and the cells were processed to isolate a mitochondria-enriched fraction and S-nitrosated protein was then determined Data are mean±sem of triplicate determinations (+MitoSNO1), or mean±range of duplicate determinations (+FCCP). […] S-nitrosated thiols were then selectively tagged with Cy3 maleimide and protein (10 μg) was then separated on a 12.5% SDS PAGE gel which was stained with coomassie blue and scanned for Cy3 fluorescence. The Cy3 fluorescence (SNO) and coomassie staining (coomassie) of each gel is shown. […]

HeLa cells = assay: Cell hypoxia experiment, extracellular pO2 by fluorescence quenching oximetry; type: cell-based; settings: 1% O2, 30 min incubation, compared to untreated controls
Protocol: FIG. 10 is a series of traces and graphs showing the effect of MitoSNAP on respiration in cells. (a-d) Jurkat cells (55×10^6 cells) were incubated in PBS supplemented with 25 mM Hepes pH 7.2 (NaOH), 1 mM sodium pyruvate, 10 μM neocuproine and 100 μM DTPA in the stirred 2.5 ml chamber of an oxygen electrode at 37° C. with 5 μM MitoSNAP (a), MitoNAP (b), SNAP (c) or MitoSNAP and FCCP (500 nM) (d). Where indicated 5 μM OxyHb was added. Traces show typical experiments that were repeated at least three times. Sections of the 02 electrode trace where OxyHb was added for (a) and (b) have been expanded 4-fold in the vertical dimension to facilitate inspection. […] Cellular pO2 values, measured by fluorescence quenching oximetry and expressed as mean±sd, are shown. […]
HeLa cells were seeded and grown to 100% confluence with 15 ml medium/dish on 165 cm^2 dishes. […] Extracellular pO2 measurements were taken by fluorescence quenching oximetry (Oxylite-2000; Oxford Optronix). […]
To evaluate the selective uptake of MitoSNAP by mitochondria within cells, the effect of MitoSNAP on respiration by Jurkat cells, a T lymphocyte cell line that grows in suspension, was measured using an O2 electrode (FIG. 10). […] Then the effects of a further 30 min incubation with MitoSNAP, MitoNAP or the mitochondrial inhibitor myxathiazol on the steady-state extracellular pO2 was assessed by fluorescence quenching oximetry (FIG. 10e).

## CC(=O)NC(C(=O)NCCCCC[P+](c1ccccc1)(c1ccccc1)c1ccccc1)C(C)(C)SN=O.CS(=O)(=O)[O-] (stereo not shown) [MitoSNAP, [5-(2-acetylamino-3-methyl-3-nitrosothio-butyrylamino)-penty1]-triphenylphosphonium methanesulfonate]
Complex I; 75 μM, 5 min
  S-nitrosation of complex I (BN-PAGE, Cy3): complex I was S-nitrosated
Complex I; 75 μM, 5 min, mean±SD, n=4
  formation of protein SNOs: 4.8±0.9 nmol protein SNOB/mg protein
Complex I; 1 mM GSH
  decrease of SNO content by GSH treatment: ~53%
C2C12 cells
  time of maximum S-nitrosation of cell proteins: 5 to 10 min
C2C12 cells; 5 min
  S-nitrosation of proteins of a mitochondria-enriched cell fraction: extensively S-nitrosated
  extent of cell protein S-nitrosation: considerably greater than that by SNAP
HeLa cells
  effect on steady-state extracellular pO2 during hypoxia: increased extracellular O2
